According to publication PMC10574154, “Antioxidant and Anti-Aging Phytoconstituents from Faucaria tuberculosa: In Vitro and In Silico Studies” (Molecules, 2023):
In brackets after ≈: the same amount, converted by molar mass.

What was measured:
[1] = ABTS radical scavenging assay; type: biochemical; conditions: mean ± SD (n = 3)
[2] = Ferric reducing/antioxidant power (FRAP) assay; type: biochemical; conditions: mean ± SD (n = 3)
Experimental: The antioxidant activity of the isolated compounds was determined using ABTS and FRAP assays in triplicate, and the average values were considered.
Herein, antioxidant potential was measured based on the samples’ ability to reduce ferric to ferrous ion. This method relies on the reduction of ferricyanide relative to the sample. Samples (1 mL) were mixed with 2.5 mL of each of sodium phosphate buffer and K3Fe (CN)6, and then the reaction mixture was incubated (50 °C, 20 min). Afterward, 2.5 mL of trichloroacetic acid was added, and centrifugation (1000× g, 10 min) was carried out. Some 2.5 mL of the supernatant solution and an equal amount of deionized H2O and 0.5 mL of ferric chloride were then mixed, and the absorbance was recorded at 700 nm.

Structure (SMILES): COc1cc(-c2oc3cc(O)cc(O)c3c(=O)c2OC2OC(COC3OC(C)C(OC4OC(C)C(O)C(O)C4O)C(O)C3O)C(O)C(O)C2O)ccc1O (stereo not drawn) [Compound 5, Isorhamnetin 3-O-[α-rhamnopyranosyl-(1→4)-α-rhamnopyranosyl-(1→6)-β-glucopyranoside]]
- IC50 Value ABTS Assay [1]: 18.19 ± 2.94 µg/mL (≈ 23.6 µM)
- IC50 Value FRAP Assay [2]: 35.04 ± 2.89 µg/mL (≈ 45.5 µM)

Structure (SMILES): O=C1O[C@H]([C@@H](O)CO)C(O)=C1O [Ascorbic acid, reference compound]
- IC50 Value ABTS Assay [1]: 10.67 ± 0.85 µg/mL (≈ 60.6 µM)
- IC50 Value FRAP Assay [2]: 20.86 ± 1.28 µg/mL (≈ 118 µM)

Structure (SMILES): COc1cc(-c2oc3cc(O)cc(O)c3c(=O)c2OC2OC(COC3OC(C)C(O)C(O)C3O)C(O)C(O)C2O)ccc1O (stereo not shown) [Compound 3, isorhamnetin 3-O-rutinoside]
- IC50 Value ABTS Assay [1]: 12.24 ± 0.61 µg/mL (≈ 19.6 µM)
- IC50 Value FRAP Assay [2]: 25.24 ± 2.03 µg/mL (≈ 40.4 µM)

Structure (SMILES): OC[C@H]1O[C@@H](Oc2cc(O)cc(O)c2)[C@H](O)[C@@H](O)[C@@H]1O [Compound 2, 3,5-dihydroxyphenyl β-D-glucopyranoside]
- IC50 Value ABTS Assay [1]: 43.40 ± 3.18 µg/mL (≈ 151 µM)
- IC50 Value FRAP Assay [2]: 64.52 ± 4.15 µg/mL (≈ 224 µM)

Structure (SMILES): Oc1cc(O)cc(O)c1 [Compound 1, phloroglucinol]
- IC50 Value ABTS Assay [1]: 6.44 ± 0.47 µg/mL (≈ 51.1 µM)
- IC50 Value FRAP Assay [2]: 12.89 ± 0.93 µg/mL (≈ 102 µM)
